Literature values as cited in US20260356814A1, “INDOLINE DERIVATIVES AS SEROTONERGIC AGENTS USEFUL FOR THE TREATMENT OF DISORDERS RELATED THERETO” (MINDSET PHARMA INC., priority 2022, published 2026).
Where two headings read alike, the source gives them in different places.

How the values were obtained:
[1] = system: depression and anxiety associated with life-threatening disease; details: in a supportive setting; cited from earlier work
[2] = system: subpopulations of low attentive and low motivated rats; details: rat, in vivo; cited from earlier work
tobacco use disorder = details: cited from earlier work
[3] = biological target: 5-HT2A and 5-HT2C receptors; details: compared with LSD; cited from earlier work
[4] = system: absolute metabolic rate of glucose in frontal and other cortical regions, striatal and limbic subcortical structures; details: 15 or 20 mg orally, healthy participants; cited from earlier work
[5] = system: brain's default mode network; details: intravenously administered; cited from earlier work
human 5-HT2A receptor = human 5-HT2A receptor (Homo sapiens, UniProt P28223); details: cited from earlier work
Sequence of human 5-HT2A receptor (P28223 whole entry): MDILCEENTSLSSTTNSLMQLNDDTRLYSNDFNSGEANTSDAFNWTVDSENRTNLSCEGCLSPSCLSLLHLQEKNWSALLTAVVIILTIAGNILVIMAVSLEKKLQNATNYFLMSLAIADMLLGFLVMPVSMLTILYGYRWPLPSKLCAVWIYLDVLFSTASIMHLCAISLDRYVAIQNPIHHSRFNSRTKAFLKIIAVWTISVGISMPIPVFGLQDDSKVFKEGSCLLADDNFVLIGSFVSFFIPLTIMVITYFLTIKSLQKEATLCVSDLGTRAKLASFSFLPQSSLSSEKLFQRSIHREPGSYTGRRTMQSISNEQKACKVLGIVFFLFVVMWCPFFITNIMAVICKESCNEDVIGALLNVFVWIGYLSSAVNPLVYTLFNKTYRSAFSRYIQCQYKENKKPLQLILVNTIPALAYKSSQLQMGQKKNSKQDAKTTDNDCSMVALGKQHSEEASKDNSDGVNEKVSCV

5-HT2 receptor = details: daily administration; cited from earlier work
[6] = controlled setting; cited from earlier work

Question: For `CN(C)CCc1c[nH]c2cccc(OP(=O)(O)O)c12` [Psilocybin, 4-phosphoryloxy-N,N-dimethyltrypatmine], which “anti-depressant and anxiolytic effects” value [1] is on record?
Answer: significant and sustained anti-depressant and anxiolytic effects

Question: What about the “performance on 5 choice serial reaction time and progressive ratio tasks” value [2] of the same molecule?
Answer: improved performance on 5 choice serial reaction time and progressive ratio tasks

Question: What about the abstinence rate (tobacco use disorder; 12 months follow-up) of the same molecule?
Answer: 67%

Question: And the abstinence rate (tobacco use disorder; six months follow-up)?
Answer: 80%

Question: What about the “K (i) for 5-HT2A and 5-HT2C relative to LSD” value [3] of the same molecule?
Answer: lower K (i) for both 5-HT2A and 5-HT2C receptors than LSD

Question: And the “absolute metabolic rate of glucose” value [4]?
Answer: increased absolute metabolic rate of glucose in frontal, and to a lesser extent in other, cortical regions as well as in striatal and limbic subcortical structures

Question: And the “oscillatory power in areas of the brain's default mode network” value [5]?
Answer: decreases in oscillatory power in areas of the brain's default mode network

Question: And the “affinity for 5-HT2A, human versus rat receptor” value (human 5-HT2A receptor)?
Answer: stronger affinity for the human 5-HT2A receptor than for the rat receptor

Question: What about the “5-HT2 receptor density in rat brain” value (5-HT2 receptor) of the same molecule?
Answer: reduce 5-HT2 receptor density in rat brain

Question: And the headache [6]?
Answer: transient, delayed headache, with incidence, duration, and severity increased in a dose-related manner
